Key:
Type in all cases: functional, organism-based
Homo sapiens [1] = organism: Homo sapiens; assay: Inhibitory concentration for anti-platelet aggregation induced by collagen at 10 ug/mL concentration
Homo sapiens [2] = organism: Homo sapiens; assay: Inhibitory concentration for anti-platelet aggregation induced by thrombin at 0.1 U/mL concentration
Homo sapiens [3] = organism: Homo sapiens; assay: Inhibitory concentration for anti-platelet aggregation induced by arachidonic acid at 100 uM concentration
Homo sapiens [4] = organism: Homo sapiens; assay: Inhibitory concentration for anti-platelet aggregation induced by platelet activating factor at 2 ng/mL concentration
Homo sapiens [5] = organism: Homo sapiens; assay: Inhibitory concentration against superoxide anion (O2-) generation in human neutrophils induced by FMLP (formyl-Met-Leu-Phe) and […](phorbol myristate acetate)
Homo sapiens [6] = organism: Homo sapiens; assay: Inhibitory concentration against neutrophil elastase release induced by FMLP (formyl-Met-Leu-Phe)

SMILES	IC50 (Homo sapiens [1]) [µM]	IC50 (Homo sapiens [2]) [µM]	IC50 (Homo sapiens [3]) [µM]	IC50 (Homo sapiens [4]) [µM]	IC50 (Homo sapiens [5]) [µM]	IC50 (Homo sapiens [6]) [µM]
COc1cccc2c(=O)oc(-c3ccc(Br)cc3)nc12	> 100	> 100	> 100	> 100	> 40	–
COc1cccc2c(=O)oc(-c3ccccc3F)nc12	39.4	7.2	8	> 100	9.74	–
COc1cccc2c(=O)oc(-c3ccccc3Cl)nc12	35.5	6.9	11.8	> 100	14.7	–
COc1ccccc1-c1nc2c(OC)cccc2c(=O)o1	> 100	> 100	> 100	> 100	14	1.59
COc1ccccc1-c1nc2c(C)cccc2c(=O)o1	54.7	> 100	36.6	> 100	22.7	7.23
Cc1cccc2c(=O)oc(-c3ccccc3F)nc12	11.9	34.3	6.8	> 100	10.8	> 40
O=c1oc(-c2ccccc2Cl)nc2c(Cl)cccc12	30	6.6	6.1	69.5	8.66	1.89
O=c1oc(-c2ccccc2F)nc2c(Cl)cccc12	49.1	14.7	12.7	87.4	> 40	6.03
COc1ccccc1-c1nc2c(Cl)cccc2c(=O)o1	44.9	14.8	25.4	70.3	10	1.91
Cc1cccc2c(=O)oc(-c3ccccc3Cl)nc12	12.6	11.9	4.3	> 100	29.9	> 40
O=c1oc(-c2ccccc2Br)nc2c(Cl)cccc12	47	7.1	10.2	87.5	6.56	1.69
COc1cccc2c(=O)oc(-c3ccccc3C)nc12	34.3	67	8.4	> 100	11.4	10.6
Cc1ccccc1-c1nc2c(C)cccc2c(=O)o1	> 100	> 100	19.3	> 100	23.6	> 40
Cc1cccc2c(=O)oc(-c3ccccc3Br)nc12	49.8	18.9	5.8	89.3	30.2	> 40
CCc1nc2c(OC)cccc2c(=O)o1	> 100	> 40	> 100	> 40	100	100
COc1cccc2c(=O)oc(C)nc12	> 100	> 100	> 100	> 100	> 40	> 40
Cc1ccccc1-c1nc2c(Cl)cccc2c(=O)o1	63.3	36.3	13.8	91.9	17.5	> 40
COc1cccc2c(=O)oc(-c3ccccc3Br)nc12	21.1	4.4	13	> 100	16.7	–
COc1cccc2c(=O)oc(-c3ccc(Cl)cc3)nc12	> 100	> 100	> 100	> 100	> 40	–
COc1cccc2c(=O)oc(-c3ccccc3)nc12	33.8	48.2	47.3	> 100	> 40	> 40
CCCCc1nc2c(OC)cccc2c(=O)o1	> 100	> 100	> 100	> 100	> 40	> 40
CC(=O)Oc1ccccc1C(=O)O [ASPIRIN]	34.9	> 100	34.6	> 100	–	–
c1ccc2c(c1)[I+]c1ccccc1-2 [DIPHENYLENEIODONIUM]	–	–	–	–	0.46	–

— ChEMBL document CHEMBL1145274, “The evaluation of 2,8-disubstituted benzoxazinone derivatives as anti-inflammatory and anti-platelet aggregation agents” (Bioorg Med Chem Lett, 2005)
